Legend:
[1] = Lipophilicity by RP-TLC; assay type: physicochemical; conditions: RP-18 TLC, water/methanol, extrapolated to 100% water
Procedure: For comparison, the active arylmethyl-triazine compounds previously found (1–3) were also examined. Stationary phase RP-18 and mixtures of water/methanol […] as a mobile phase were employed. RM values were calculated from the RF data obtained. […] The regression coefficients (r^2) determined for all compounds were higher than 0.95. On the basis of the linear relationship between RM values and the volume fraction of methanol, values of RM0 in the systems analyzed corresponding to 100% of water were obtained by extrapolation. RM0 values received for the compounds tested ranged from 3.14 to 4.49 (Figure 6).
The mobile phases were prepared by mixing the respective amounts of water and organic modifier (methanol) in a range from 40 to 90% (v/v) in 5% increments. TLC was performed on Silica gel 60RP-18 F254 plates (7 × 10 cm) plates (Merck, Darmstadt, Germany). Methanol was used to prepare the solutions of the substances. Solutions (10 µL) of the analyzed compounds were applied to the plates as 5 mm bands, 10 mm apart and 10 mm from the lower edge and sides of the plates, by using Linomat V applicator (Camag, Basel, Switzerland). The vertical chamber (Sigma–Aldrich, St. Louis, MI, USA), 20 × 10 × 18 cm in size, was saturated with mobile phase for 20 min. Development was carried out over 9 cm from the starting line at a temperature of 20 °C. Next, the plates were dried at room temperature, and the spots were observed under ultraviolet light at 254 nm and/or 366 nm (UV lamp, Camag, Basel, Switzerland). In each case, sharp and symmetric spots without a tendency for tailing were obtained. Each experiment was run in triplicate and mean RF (retardation factor) values were calculated.
Starting from the RF values, the RM parameters were computed as described in the formula:RM = log(1/RF − 1)
The linear correlations between the RM values of the substances and the concentration of methanol in mobile phases were calculated for each compound with the Soczewiński-Wachtmeister equation [22]:RM = RM0 + aC where C is the concentration of the organic modifier (in %) in the mobile phase, a is the slope, and RM0 is the […].

[2] = biological target: T1, 5-HT1A (Homo sapiens, UniProt P08908); assay: Radioligand binding assay, 5-HT1A, [3H]-8-OH-DPAT; conditions: human receptor stably expressed in HEK-293 cells
T1 construct: expressed in transfected cells; host or cells: HEK-293
T1 sequence (P08908 1-422): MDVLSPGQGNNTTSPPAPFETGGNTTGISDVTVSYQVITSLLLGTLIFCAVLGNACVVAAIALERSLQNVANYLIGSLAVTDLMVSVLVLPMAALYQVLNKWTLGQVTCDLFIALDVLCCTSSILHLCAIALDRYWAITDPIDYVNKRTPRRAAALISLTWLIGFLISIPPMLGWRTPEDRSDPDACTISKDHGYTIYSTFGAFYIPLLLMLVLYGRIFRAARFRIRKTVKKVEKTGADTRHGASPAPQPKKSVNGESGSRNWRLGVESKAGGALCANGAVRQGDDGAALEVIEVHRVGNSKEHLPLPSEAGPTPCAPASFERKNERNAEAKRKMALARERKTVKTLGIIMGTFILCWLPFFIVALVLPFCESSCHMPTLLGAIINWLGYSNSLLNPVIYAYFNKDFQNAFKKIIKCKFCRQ

[3] = biological target: T2, human serotonin 5-HT6R (Homo sapiens, UniProt P50406); assay: Radioligand binding assay, 5-HT6R, [3H]-LSD displacement; conditions: human receptor stably expressed in HEK-293 cells; mean of at least two independent experiments; read-out: Ki 5-HT6 [3H]-LSD
T2 construct: expressed in transfected cells; host or cells: HEK-293
T2 sequence (P50406 whole entry): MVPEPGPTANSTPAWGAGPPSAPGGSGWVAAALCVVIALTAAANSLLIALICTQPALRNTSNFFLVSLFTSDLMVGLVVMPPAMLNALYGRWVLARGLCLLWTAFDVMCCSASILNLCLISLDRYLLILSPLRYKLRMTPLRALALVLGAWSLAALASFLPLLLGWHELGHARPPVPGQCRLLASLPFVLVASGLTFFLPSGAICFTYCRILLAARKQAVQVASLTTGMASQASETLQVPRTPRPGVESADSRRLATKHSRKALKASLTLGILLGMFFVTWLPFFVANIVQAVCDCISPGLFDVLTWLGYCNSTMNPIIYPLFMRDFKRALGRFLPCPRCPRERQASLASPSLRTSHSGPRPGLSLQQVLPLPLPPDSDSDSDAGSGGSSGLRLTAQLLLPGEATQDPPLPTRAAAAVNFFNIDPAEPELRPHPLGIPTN
Procedure: Five selective radioligands were employed (Table 1).
Radioligand binding assays were used to determine the affinity of the synthesized compounds for human serotonin 5-HT6R, which were stably expressed in HEK-293 cells. […] Each compound was tested in triplicate at 7 to 8 different concentrations (10^−11 to 10^−4 M). The inhibition constants (Ki) were calculated using the Cheng–Prusoff equation [40], and the results are expressed as the mean of at least two independent experiments.

[4] = biological target: T3, 5-HT7bR (Homo sapiens, UniProt P34969); assay: Radioligand binding assay, 5-HT7bR, [3H]-5-CT; conditions: human 5-HT7b receptor stably expressed in HEK-293 cells; read-out: Ki 5-HT7 [3H]-5-CT
T3 construct: expressed in transfected cells; host or cells: HEK-293
T3 sequence (P34969 1-432 limits assumed): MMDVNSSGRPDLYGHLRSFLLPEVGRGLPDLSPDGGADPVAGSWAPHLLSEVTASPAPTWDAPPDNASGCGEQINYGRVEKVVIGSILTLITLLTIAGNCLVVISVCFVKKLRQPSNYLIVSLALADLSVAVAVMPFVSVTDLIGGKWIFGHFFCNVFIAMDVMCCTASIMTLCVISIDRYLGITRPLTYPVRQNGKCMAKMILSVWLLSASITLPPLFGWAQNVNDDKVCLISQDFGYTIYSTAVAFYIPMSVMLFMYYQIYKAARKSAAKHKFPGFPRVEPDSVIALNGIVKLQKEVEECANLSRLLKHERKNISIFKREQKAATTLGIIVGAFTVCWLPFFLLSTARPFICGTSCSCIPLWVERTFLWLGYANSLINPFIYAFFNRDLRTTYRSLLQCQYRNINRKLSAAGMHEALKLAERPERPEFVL

[5] = biological target: T4, dopaminergic D2LR (Homo sapiens, UniProt P14416); assay: Radioligand binding assay, D2LR, [3H]-Raclopride; conditions: human D2L receptor stably expressed in HEK-293 cells; read-out: Ki D2 [3H]-Raclopride
T4 construct: expressed in transfected cells; host or cells: HEK-293
T4 sequence (P14416 whole entry): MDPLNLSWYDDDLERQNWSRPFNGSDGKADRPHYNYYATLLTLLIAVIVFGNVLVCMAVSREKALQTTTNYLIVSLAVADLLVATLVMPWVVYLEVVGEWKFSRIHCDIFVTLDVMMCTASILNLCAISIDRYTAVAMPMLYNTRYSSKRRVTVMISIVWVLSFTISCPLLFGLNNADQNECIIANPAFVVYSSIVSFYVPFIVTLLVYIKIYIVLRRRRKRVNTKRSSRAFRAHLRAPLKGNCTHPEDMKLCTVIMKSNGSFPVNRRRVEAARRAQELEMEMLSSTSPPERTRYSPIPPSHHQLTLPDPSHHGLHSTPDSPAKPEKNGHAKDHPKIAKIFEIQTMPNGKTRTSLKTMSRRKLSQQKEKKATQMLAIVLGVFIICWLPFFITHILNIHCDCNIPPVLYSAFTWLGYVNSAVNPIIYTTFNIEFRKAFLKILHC

[6] = biological target: T5, 5-HT2A (Homo sapiens, UniProt P28223); assay: Radioligand binding assay, 5-HT2A, [3H]-Ketanserin; conditions: human receptor stably expressed in HEK-293 cells
T5 construct: expressed in transfected cells; host or cells: HEK-293
T5 sequence (P28223 whole entry): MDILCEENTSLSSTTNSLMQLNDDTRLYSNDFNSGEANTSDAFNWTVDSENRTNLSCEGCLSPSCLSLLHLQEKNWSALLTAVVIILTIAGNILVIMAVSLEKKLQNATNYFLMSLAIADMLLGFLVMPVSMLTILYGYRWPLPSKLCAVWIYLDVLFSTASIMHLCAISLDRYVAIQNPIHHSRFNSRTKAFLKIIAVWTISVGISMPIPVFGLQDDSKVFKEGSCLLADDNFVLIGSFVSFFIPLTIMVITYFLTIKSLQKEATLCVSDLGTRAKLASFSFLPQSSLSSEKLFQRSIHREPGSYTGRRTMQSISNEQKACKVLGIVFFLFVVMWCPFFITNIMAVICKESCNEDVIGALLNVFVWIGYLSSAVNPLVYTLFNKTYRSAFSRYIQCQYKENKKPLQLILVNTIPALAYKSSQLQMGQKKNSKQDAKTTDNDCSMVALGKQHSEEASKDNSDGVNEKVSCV

SMILES | RM0 [1] | Ki [2] [µM] | Ki [3] [µM] | Ki [4] [µM] | Ki [5] [µM] | Ki [6] [µM]
CN1CCN(c2nc(N)nc(CN3C(=O)NC(c4ccc(Cl)cc4)(c4ccc(Cl)cc4)C3=O)n2)CC1 [Compound 8, 3-((4-Amino-6-(4-methylpiperazin-1-yl)-1,3,5-triazin-2-yl)methyl)-5,5-bis(4-chlorophenyl)imidazolidine-2,4-dione] | 4.46 | 3.05 | 1.06 | 0.594 | 6.85 | –
CN1CCN(c2nc(N)nc(CN3C(=O)NC(C)(c4ccc(Cl)cc4Cl)C3=O)n2)CC1 (centres unmarked) [Compound 22, 3-((4-Amino-6-(4-methylpiperazin-1-yl)-1,3,5-triazin-2-yl)methyl)-5-(2,4-dichlorophenyl)-5-methylimidazolidine-2,4-dione] | – | 14 | 0.457 | 10.1 | 15.1 | 10.8
CN1CCN(c2nc(N)nc(CN3C(=O)NC(C)(c4ccccc4)C3=O)n2)CC1 (centres unmarked) [Compound 19, 3-((4-Amino-6-(4-methylpiperazin-1-yl)-1,3,5-triazin-2-yl)methyl)-5-methyl-5-phenylimidazolidine-2,4-dione] | – | 31.6 | 0.726 | 1.1 | 41 | 12.1
CN1CCN(c2nc(N)nc(CN3C(=O)N(Cc4ccc(F)cc4)C(C)(C)C3=O)n2)CC1 [Compound 13, 1-(4-Fluorobenzyl)-3-((4-amino-6-(4-methylpiperazin-1-yl)-1,3,5-triazin-2-yl)methyl)-5,5-dimethylimidazolidine-2,4-dione] | – | 48.4 | 0.663 | 0.953 | 6.56 | 3.55
CN1CCN(c2nc(N)nc(CN3C(=O)N(Cc4cccc(Br)c4)C(C)(C)C3=O)n2)CC1 [Compound 15, 1-(3-Bromobenzyl)-3-((4-amino-6-(4-methylpiperazin-1-yl)-1,3,5-triazin-2-yl)methyl)-5,5-dimethylimidazolidine-2,4-dione] | – | 12.9 | 0.57 | 0.571 | 6.68 | 1.33
CN1CCN(c2nc(N)nc(CN3C(=O)NC(C)(c4cccc(Cl)c4)C3=O)n2)CC1 (centres unmarked) [Compound 20, 3-((4-Amino-6-(4-methylpiperazin-1-yl)-1,3,5-triazin-2-yl)methyl)-5-(3-chlorophenyl)-5-methylimidazolidine-2,4-dione] | – | 4.1 | 0.418 | 0.791 | 16.8 | 7.4
Cc1cccc(CN2C(=O)N(Cc3nc(N)nc(N4CCN(C)CC4)n3)C(=O)C2(C)C)c1 [Compound 17, 1-(3-Methylbenzyl)-3-((4-amino-6-(4-methylpiperazin-1-yl)-1,3,5-triazin-2-yl)methyl)-5,5-dimethylimidazolidine-2,4-dione] | – | 17 | 0.895 | 0.42 | 5.21 | 0.817
CN1CCN(c2nc(N)nc(Cc3cccc4ccccc34)n2)CC1 [Compound 1, reference compound] | 3.14 | – | – | – | – | –
CN1CCN(c2nc(N)nc(CN3C(=O)NC(C)(c4cc(Cl)ccc4Cl)C3=O)n2)CC1 (centres unmarked) [Compound 21, 3-((4-Amino-6-(4-methylpiperazin-1-yl)-1,3,5-triazin-2-yl)methyl)-5-(2,5-dichlorophenyl)-5-methylimidazolidine-2,4-dione] | – | 26.2 | 0.403 | 1.56 | 11.5 | 11.1
CN1CCN(c2nc(N)nc(CN3C(=O)N(Cc4ccc(Cl)cc4)C(=O)C3(C)C)n2)CC1 [Compound 5, 3-(4-Chlorobenzyl)-1-((4-amino-6-(4-methylpiperazin-1-yl)-1,3,5-triazin-2-yl)methyl)-5,5-dimethylimidazolidine-2,4-dione] | 3.22 | 15.4 | 4.28 | 1.62 | 5.01 | –
COc1cccc(CN2C(=O)N(Cc3nc(N)nc(N4CCN(C)CC4)n3)C(=O)C2(C)C)c1 [Compound 16, 1-(3-Methoxybenzyl)-3-((4-amino-6-(4-methylpiperazin-1-yl)-1,3,5-triazin-2-yl)methyl)-5,5-dimethylimidazolidine-2,4-dione] | – | 23.9 | 0.692 | 3.59 | 15.5 | 2.04
CN1CCN(c2nc(N)nc(CN3C(=O)N(Cc4ccccc4)C(C)(C)C3=O)n2)CC1 [Compound 9, 3-((4-Amino-6-(4-methylpiperazin-1-yl)-1,3,5-triazin-2-yl)methyl)-1-benzyl-5,5-dimethylimidazolidine-2,4-dione] | – | 42.6 | 0.592 | 0.35 | 8.78 | 1.6
CN1CCN(c2nc(N)nc(CN3C(=O)NC(C)(C)C3=O)n2)CC1 [Compound 4] | – | – | 0.427 | 35.8 | 22.3 | –
CN1CCN(c2nc(N)nc(Cc3cccc(Cl)c3)n2)CC1 [Compound 2, reference compound] | 3.25 | – | – | – | – | –
CN1CCN(c2nc(N)nc(CN3C(=O)N(Cc4cccc(Cl)c4)C(C)(C)C3=O)n2)CC1 [Compound 10, 1-(3-Chlorobenzyl)-3-((4-amino-6-(4-methylpiperazin-1-yl)-1,3,5-triazin-2-yl)methyl)-5,5-dimethylimidazolidine-2,4-dione] | – | 13.6 | 0.271 | 0.159 | 4.63 | 0.328
CN1CCN(c2nc(N)nc(CN3C(=O)N(Cc4ccc(Cl)cc4Cl)C(C)(C)C3=O)n2)CC1 [Compound 12, 1-(2,4-Dichlorobenzyl)-3-((4-amino-6-(4-methylpiperazin-1-yl)-1,3,5-triazin-2-yl)methyl)-5,5-dimethylimidazolidine-2,4-dione] | – | 7.69 | 0.205 | 1.12 | 0.681 | 3.59
Cc1cccc(Cc2nc(N)nc(N3CCN(C)CC3)n2)c1 [Compound 3, reference compound] | 3.58 | – | – | – | – | –
Cc1ccc(C2(C)NC(=O)N(Cc3nc(N)nc(N4CCN(C)CC4)n3)C2=O)cc1 (centres unmarked) [Compound 24, 3-((4-Amino-6-(4-methylpiperazin-1-yl)-1,3,5-triazin-2-yl)methyl)-5-(4-methylphenyl)-5-methylimidazolidine-2,4-dione] | – | 22.3 | 0.667 | 0.564 | 23.3 | 24.4
CN1CCN(c2nc(N)nc(CN3C(=O)N(Cc4cccc(F)c4)C(C)(C)C3=O)n2)CC1 [Compound 14, 1-(3-Fluorobenzyl)-3-((4-amino-6-(4-methylpiperazin-1-yl)-1,3,5-triazin-2-yl)methyl)-5,5-dimethylimidazolidine-2,4-dione] | – | 37.1 | 0.447 | 0.088 | 6.58 | 0.239
CN1CCN(c2nc(N)nc(CN3C(=O)N(Cc4cc(Cl)ccc4Cl)C(C)(C)C3=O)n2)CC1 [Compound 11, 1-(2,5-Dichlorobenzyl)-3-((4-amino-6-(4-methylpiperazin-1-yl)-1,3,5-triazin-2-yl)methyl)-5,5-dimethylimidazolidine-2,4-dione] | – | 4.16 | 0.597 | 0.279 | 2.87 | 0.809

Source: article PMC6222450, “Computer-Aided Studies for Novel Arylhydantoin 1,3,5-Triazine Derivatives as 5-HT6 Serotonin Receptor Ligands with Antidepressive-Like, Anxiolytic and Antiobesity Action In Vivo” (Molecules : A Journal of Synthetic Chemistry and Natural …, 2018)
